System: NF-κB
Experiment: LPS-stimulated NF-κB activation in RAW264.7 murine macrophage (gel shift with biotin-labelled NF-κB consensus sequence)
Type: cell-based
Conditions: RAW264.7, 1 μM compound 22 h, then 1 μg/ml LPS 2 h; FIG. 2
Protocol: [Measurement of LPS-stimulated NF-κB activation in RAW264.7 murine macrophage strain] The murine macrophage RAW264.7 is preserved in DMEM containing 10% fetal bovine serum. After treatment in DMEM with 1 μM cycloartenyl ferulate (CAF) for 22 h, it is further stimulated for 2 h in 1 μg/ml lipopolysaccharide (LPS).
The nucleoprotein of RAW264.7 cell is extracted with Transfactor Extraction kit (BD Biosciences, USA), and then is bound with the following NF-κB consensus sequence of biotin-labeling reaction for 60 min in reaction solution consisting 100 mM HEPES (pH 7.6), 5 mM EDTA, 50 mM ammonium sulfate, 5 mM DTT, 150 mM KCl, 1% (v/v) Tween20 and 0.0001% poly (dI-dC) (Amersham Biosciences, USA).
Except these experimental groups, control group reacting with 90-fold unlabeled consensus sequence, along with supershift group using anti-p50 polyclonal antibody (Abcam, USA) and anti-p65 polyclonal antibody (Santa Cruz Biotechnology, INC., USA) are established to make comparison. […]
The peroxidase activity is detected with Immobilon Western Chemiluminescent HRP substrate (Millipore, USA) and the luminous intensity is quantified by Image J (National Institutes of Health, USA) as shown in FIG. 2. […]

## COc1cc(/C=C/C(=O)O)ccc1O [ferulic acid]
  NF-κB activation: barely inhibits

— US20090326259A1, “NF-Kappabeta Activation Inhibitor” (Tokyo University of Marine Science and Technology, priority 2006, published 2009)
